# Earlier results in US6340756B1, “Process for preparing a 2-(2-amino-1, 6-dihydro-6-oxo-purin-9-yl)methoxy-1,3-propanediol derivative” (Syntex (U.S.A.) Inc., priority 1996, dated 2002).
# What was measured:
# [1] = rats, urinary recovery of acyclovir, Beauchamp et al. 1992
# [2] = EP 0 694 547 A
# [3] = EP 0 694 547 A; remark: listed apart in the source
# [4] = EP 0 308 065 A2
SMILES,amount of the parent drug (acyclovir) in the urine compared with acyclovir itself [1],other results
CC[C@H](N)C(=O)OCCOCn1cnc2c(=O)[nH]c(N)nc21,greater amounts of the parent drug in the urine than acyclovir itself,–
"CC(N)C(=O)OCCOCn1cnc2c(=O)[nH]c(N)nc21 (racemic) [D,L-alanyl]",greater amounts of the parent drug in the urine than acyclovir itself,–
"CC(C)C(N)C(=O)OCCOCn1cnc2c(=O)[nH]c(N)nc21 (racemic) [D,L-valyl]",greater amounts of the parent drug in the urine than acyclovir itself,–
CCC(C)C(N)C(=O)OCCOCn1cnc2c(=O)[nH]c(N)nc21 (racemic) [DL-isoleucyl],greater amounts of the parent drug in the urine than acyclovir itself,–
"CC(C)[C@@H](N)C(=O)OCC(CO)OCn1cnc2c(O)nc(N)nc21 (stereo partly drawn) [2-(2-amino-1,6-dihydro-6-oxo-purin-9-yl)methoxy-3-hydroxy-1-propyl-L-valinate]",–,oral absorption [2]: improved oral absorption; toxicity [3]: low toxicity
C[C@H](N)C(=O)OCCOCn1cnc2c(=O)[nH]c(N)nc21 [L-alanyl],greater amounts of the parent drug in the urine than acyclovir itself,–
CC[C@H](C)[C@H](N)C(=O)OCCOCn1cnc2c(=O)[nH]c(N)nc21 [L-isoleucyl],greater amounts of the parent drug in the urine than acyclovir itself,–
CSCC[C@H](N)C(=O)OCCOCn1cnc2c(=O)[nH]c(N)nc21 [L-methionyl],greater amounts of the parent drug in the urine than acyclovir itself,–
Nc1nc2c(ncn2COCCOC(=O)C2CCCN2)c(=O)[nH]1 [L-prolyl],greater amounts of the parent drug in the urine than acyclovir itself,–
CC(C)[C@H](N)C(=O)OCCOCn1cnc2c(=O)nc(N)[nH]c21 [L-valyl],greater amounts of the parent drug in the urine than acyclovir itself,rank as prodrug among the esters investigated ([1]; eighteen amino acid esters): best prodrug
NCC(=O)OCCOCn1cnc2c(=O)[nH]c(N)nc21 [glycyl],greater amounts of the parent drug in the urine than acyclovir itself,–
CC(C)[C@H](N)C(=O)OCCOCn1cnc2c(=O)nc(N)[nH]c21 [valine ester of acyclovir],–,"absorption from the gut after oral administration, compared with other esters and acyclovir [4]: large increase in absorption"
